Measured values reported in patent publication US20070105961A1, “1-Amino-alkylcyclohexanes as 5-HT3 and neuronal nicotinic receptor antagonists” (MERZ PHARMA GMBH & CO. KGAA, priority 2000, published 2007).
pIC50, pKi: −log10 of the molar value. Where two headings read alike, the source gives them in different places.

Experiments:
NMDA receptors [1] = molecular target: T1, NMDA receptors; conditions: at −70 mV, cultured rat hippocampal neurones, cited from earlier work
T1 construct: PC NMDA (antagonism of NMDA-induced inward currents); other: at −70 mV, cultured rat hippocampal neurones; PC (PC NMDA, antagonism of NMDA-induced inward currents)

5-HT3 receptors = molecular target: T2, 5-HT3 receptors (Mus musculus, UniProt P23979); experiment: patch clamp, antagonism of serotonin-induced inward currents in N1E-115 cells; type: cell-based; conditions: serotonin (10 μM) applied for 2 secs, read-out: 5HT3 IC50 against steady-state responses
T2 construct: against “steady-state” responses of N1E-115 cells to serotonin (10 μM); host or cells: N1E-115 cells
T2 sequence (P23979 24-489): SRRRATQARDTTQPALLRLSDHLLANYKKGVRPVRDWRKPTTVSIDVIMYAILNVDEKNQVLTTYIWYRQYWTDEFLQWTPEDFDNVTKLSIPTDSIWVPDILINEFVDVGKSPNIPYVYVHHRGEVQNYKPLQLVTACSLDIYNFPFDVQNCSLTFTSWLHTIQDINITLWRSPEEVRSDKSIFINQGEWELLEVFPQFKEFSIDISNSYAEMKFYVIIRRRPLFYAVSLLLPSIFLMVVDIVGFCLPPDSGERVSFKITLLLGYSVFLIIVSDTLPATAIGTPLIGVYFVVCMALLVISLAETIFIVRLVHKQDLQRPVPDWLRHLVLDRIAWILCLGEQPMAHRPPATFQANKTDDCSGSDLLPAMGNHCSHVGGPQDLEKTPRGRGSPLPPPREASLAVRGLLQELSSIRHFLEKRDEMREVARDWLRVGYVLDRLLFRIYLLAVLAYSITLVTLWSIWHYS
Protocol: N1E-115 cells were purchased from the European collection of cell cultures (ECACC, Salisbury, UK) and stored at −80° C. until further use. The cells were plated at a density of 100,000 cells cm^−2 onto plastic Petri dishes (Falcon) and were nourished with NaHCO3/HEPES-buffered minimum essential medium (MEM) supplemented with 15% foetal calf serum (Gibco) and incubated at 37° C. with 5% CO2 at 95% humidity. The medium was exchanged completely daily. Once every three days, cells were re-seeded onto fresh Petri dishes following treatment with trypsin-EDTA (1% in PBS), resuspension in MEM, and centrifugation at 1000 for 4 mins.
Patch clamp recordings were made from lifted cells, 2-3 days following seeding with polished glass electrodes (2-3 MΩ) in the whole cell mode at room temperature (20-22° C.) with an EPC-7 amplifier (List). Test substances were applied as for hippocampal cells. The contents of the intracellular solution were as follows (mM): CsCl (130), HEPES (10), EGTA (10), MgCl2 (2), CaCl2 (2), K-ATP (2), Tris-GTP (0.2), D-Glucose (10); pH was adjusted to 7.3 with CsOH or HCl. The extracellular solutions had the following basic composition (mM): NaCl (124), KCl (2.8), HEPES (10), pH 7.3 with NaOH or HCl.
Only results from stable cells were accepted for inclusion in the final analysis, i.e., showing at least 75% recovery of responses to agonist (serotonin or Ach) following removal of the antagonist tested. Despite this, recovery from drug actions wasn't always 100% because of rundown in some cells (<=10% over 10 mins). When present, this was always compensated by basing the % antagonism at each concentration on both control and recovery and assuming a linear time course for this rundown. All antagonists were assessed at steady-state blockade with 3 to 6 concentrations on at least 5 cells. Equilibrium blockade was achieved within 2 to 5 agonist applications, depending on antagonist concentration.
FIG. 1A and FIG. 1B show concentration-dependence of the blockade of 5HT3 receptors by MRZ 2/633 in cultured N1E-115 cells. Serotonin (10 μM) was applied for 2 seconds every 30 seconds in the continuous presence of various concentrations of MRZ 2/633 (1-10 μM).
B: Peak and steady-state (plateau) serotonin current responses were normalized to control levels and plotted as means (±SEM) against MRZ 2/633 concentration (n=8). Estimation of IC50s and curve fitting were made according to the 4 parameter logistic equation (GraFit, Erithacus Software).

[2] = molecular target: T3, α7 neuronal nicotinic receptors (Rattus norvegicus, UniProt Q05941); experiment: patch clamp, antagonism of Ach-induced inward currents in cultured hippocampal neurones; type: cell-based
T3 construct: against peak responses of cultured hippocampal neurones to Ach (1 mM) applied for 2 secs; endogenous in cells; host or cells: cultured rat embryonic hippocampal neurones

NMDA receptors [3] = molecular target: T4, NMDA receptors; conditions: rat cortical membranes, cited from earlier work
T4 construct: other: rat cortical membranes

[4] = Table 2, read-out: PC NMDA (antagonism of NMDA-induced inward currents)
[5] = Table 3, read-out: PC (PC NMDA, antagonism of NMDA-induced inward currents)
[6] = cultured hippocampal neurones, Ach (1 mM) applied for 2 secs, read-out: PC Ach IC50 against peak responses
[7] = read-out: [3H]MK (displacement of [3H]MK-801 binding), Table 3
[8] = read-out: [3H]MK- (displacement of [3H]MK-801 binding), Table 2

T3 sequence (Q05941 23-502): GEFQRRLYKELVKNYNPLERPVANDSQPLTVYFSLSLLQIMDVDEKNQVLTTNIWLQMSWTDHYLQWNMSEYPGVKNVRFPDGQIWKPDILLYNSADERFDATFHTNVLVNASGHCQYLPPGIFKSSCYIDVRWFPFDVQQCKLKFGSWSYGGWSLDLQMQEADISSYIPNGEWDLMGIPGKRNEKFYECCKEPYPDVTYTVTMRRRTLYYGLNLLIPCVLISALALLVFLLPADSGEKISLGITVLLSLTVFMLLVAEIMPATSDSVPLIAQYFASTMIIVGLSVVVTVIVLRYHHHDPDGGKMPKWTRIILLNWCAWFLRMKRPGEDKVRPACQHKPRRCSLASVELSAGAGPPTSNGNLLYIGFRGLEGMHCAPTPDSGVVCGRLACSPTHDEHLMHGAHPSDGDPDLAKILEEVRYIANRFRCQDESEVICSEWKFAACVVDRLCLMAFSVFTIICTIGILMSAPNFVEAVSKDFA

Row | pIC50 [2, 6] | fold more effective as α7 neuronal nicotinic antagonist than as NMDA receptor antagonist ([2]; Table 3 and FIG. 4) [fold] | SMILES | pIC50 (NMDA receptors [1]; [4]) | pIC50 (NMDA receptors [1]; [5]) | pIC50 (5-HT3 receptors) | pKi (NMDA receptors [3]; [7]) | pKi (NMDA receptors [3]; [8]) | α7 neuronal nicotinic antagonism (in words) ([2]; hippocampal neurones) | pIC50 [2]
1 | 5.66 |  | CCC1(C)CC(C)(C)CC(C)(N)C1 (mixture of isomers) [MRZ 2/615, 1-Amino-1,3,5,5-tetramethyl-3-ethylcyclohexane (mixture of diastereomers)] | 5.89 | 5.54 | 5.60 | 5.64 | 5.64 |  | 
2 | 5.47 |  | CC1CC(C)CC(C)(N)C1 (mixture of isomers) [MRZ 2/616, 1-Amino-1,3,5-trimethylcyclohexane (mixture of diastereomers)] | 4.48 | 4.48 | 4.41 | 5.00 | 4.98 | much more potent in this regard than previously reported for NMDA receptors | 
3 | 5.94 |  | CCCC1(C)CCCC(C)(N)C1 (mixture of isomers) [MRZ 2/617, 1-Amino-1,3-dimethyl-3-propylcyclohexane (mixture of diastereomers)] |  | 4.19 |  | 4.44 |  |  | 
4 | 4.52 |  | CC1(C)CC(C)(C)CC(C)(N)C1 [MRZ 2/579, 1-Amino-1,3,3,5,5-pentamethylcyclohexane] | 5.89 | 5.89 | 5.77 | 5.84 | 5.85 |  | 
5 | 6.19 |  | CCCC1(C)CC(C)CC(C)(N)C1 (stereo not drawn) [MRZ 2/618, 1-Amino-1,3(trans),5(trans)-trimethyl-3(cis)-propylcyclohexane] |  | 4.24 |  | 4.64 |  |  | 
6 | 5.61 |  | CCC1(C)CCCC(C)(N)C1 (centres unmarked) [MRZ 2/620, 1-Amino-1,3-dimethyl-3-ethylcyclohexane] |  | 4.00 |  | 4.62 |  |  | 
7 | 5.62 |  | CC1(N)CCCCC1 [MRZ 2/641, 1-Amino-1-methylcyclohexane] |  | < 4.00 |  | 3.87 |  |  | 
8 | 5.89 | 16 | CC1(C)CC(C)(C)CC(C)(N2CCCC2)C1 [MRZ 2/705, N-(1,3,3,5,5-pentamethylcyclohexyl)pyrrolidine] |  | 4.68 |  | 5.15 |  |  | 

Continued, compound first:

Row | SMILES | pIC50 [2, 6] | fold more effective as α7 neuronal nicotinic antagonist than as NMDA receptor antagonist ([2]; Table 3 and FIG. 4) [fold] | pIC50 (NMDA receptors [1]; [4]) | pIC50 (NMDA receptors [1]; [5]) | pIC50 (5-HT3 receptors) | pKi (NMDA receptors [3]; [7]) | pKi (NMDA receptors [3]; [8]) | α7 neuronal nicotinic antagonism (in words) ([2]; hippocampal neurones) | pIC50 [2]
9 | C[C@@H]1CC(C)(C)C[C@@](C)(N)C1 (relative stereo) [MRZ 2/607, 1-Amino-1,3,3,5(trans)-tetramethylcyclohexane (axial amino group)] |  |  | 4.86 |  | 4.65 |  | 5.11 |  | 
10 | C[C@H]1CCC[C@](C)(N)C1 (relative stereo) [MRZ 2/625, 1-Amino-1,3(trans)-dimethylcyclohexane] | 5.48 |  |  | 3.61 |  | 4.31 |  |  | 
11 | CCC[C@H]1CCC[C@](C)(N)C1 (relative stereo) [MRZ 2/627, 1-Amino-1-methyl-3(trans)propylcyclohexane] | 5.59 |  |  | 3.82 |  | 4.17 |  |  | 
12 | CC[C@H]1CCC[C@](C)(N)C1 (relative stereo) [MRZ 2/629, 1-Amino-1-methyl-3(trans)ethylcyclohexane] | 5.69 |  |  | 3.66 |  | 4.33 |  |  | 
13 | CC[C@@H]1CC(C)(C)C[C@](C)(N)C1 (relative stereo) [MRZ 2/632, 1-Amino-1,3,3-trimethyl-5(cis)ethylcyclohexane] |  |  | 5.19 |  | 5.62 |  | 5.55 |  | 
14 | CC[C@@H]1CC(C)(C)C[C@@](C)(N)C1 (relative stereo) [MRZ 2/633, 1-Amino-1,3,3-trimethyl-5(trans)ethylcyclohexane] |  |  | 4.86 |  | 5.11 |  | 5.33 |  | 
15 | CCCC1(N)CC(C)(C)CC(C)(C)C1 [MRZ 2/601, 1-Amino-1-propyl-3,3,5,5-tetramethylcyclohexane] |  |  | 5.00 |  | 5.89 |  | 5.11 |  | 
16 | CC1(C)CCCC(C)(N)C1 (centres unmarked) [MRZ 2/621, 1-Amino-1,3,3-trimethylcyclohexane] |  |  | 4.03 | 4.03 | 4.69 | 4.51 | 4.51 |  | 6.19
17 | CNC1(C)CC(C)(C)CC(C)(C)C1 [MRZ 2/640, N-methyl-1-Amino-1,3,3,5.5-pentamethylcyclohexane] |  |  | 4.84 |  | 4.97 |  | 5.32 |  | 
18 | CN(C)C1(C)CC(C)(C)CC(C)(C)C1 [MRZ 2/642, N,N-dimethyl-1-amino-1,3,3,5,5-pentamethylcyclohexane] |  |  | 4.37 | 4.37 | 4.45 | 4.97 | 4.97 |  | 6.00
